9 compounds from ChEMBL document CHEMBL1201862, “PubChem BioAssay data set” (2004) can be followed below.

The target in test [1] is DNA dC->dU-editing enzyme APOBEC-3G (Homo sapiens, UniProt Q9HC16). The test is described as follows: inhibition of APOBEC3G ssDNA deamination – biochemical, fluorescence, single-stranded DNA substrate, SAR follow-up (AID 602136). It is filed as functional. The note with it: read-out: IC50_Mean.
In test [2] the target is DNA dC->dU-editing enzyme APOBEC-3A (Homo sapiens, UniProt P31941). The test is described as follows: SAR analysis of small molecule inhibitors of APOBEC3A DNA Deaminase via a fluorescence-based single-stranded DNA deaminase assay. Particulars: read-out: IC50_Mean. The class given is functional.
Chain of DNA dC->dU-editing enzyme APOBEC-3A (P31941 whole entry): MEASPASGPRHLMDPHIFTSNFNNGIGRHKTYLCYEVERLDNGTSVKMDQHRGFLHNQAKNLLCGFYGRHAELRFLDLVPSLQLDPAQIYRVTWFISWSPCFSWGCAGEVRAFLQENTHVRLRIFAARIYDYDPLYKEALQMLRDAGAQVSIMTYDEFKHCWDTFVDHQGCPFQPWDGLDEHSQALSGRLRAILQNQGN
Test [3] deals with Ras and Rab interactor 1/Tyrosine-protein kinase ABL1 (Homo sapiens, UniProt P00519+Q13671). It is filed as functional.
Test [4] has as its system Vero. The test is described as follows: viability of Vero cells under compound – cytotoxicity control for flavivirus capping enzyme inhibitors (AID 588742). The class given is functional. The note with it: Chlorocebus sabaeus.
For test [5], the target named is Genome polyprotein (dengue virus type 2, UniProt P29990). Briefly: flavivirus cap methylation enzyme inhibition – biochemical, confirmation dose response, primary screen (AID 588689). The class given is functional.
In test [6] the target is Photoreceptor-specific nuclear receptor (Homo sapiens, UniProt Q9Y5X4). It is filed as functional, cell-based.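 Further: CHO-S cells with Gal4-NCOR and VP16-NR2E3 two-hybrid luciferase reporter.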
Chain of Photoreceptor-specific nuclear receptor (Q9Y5X4 whole entry, the tested form may be a part): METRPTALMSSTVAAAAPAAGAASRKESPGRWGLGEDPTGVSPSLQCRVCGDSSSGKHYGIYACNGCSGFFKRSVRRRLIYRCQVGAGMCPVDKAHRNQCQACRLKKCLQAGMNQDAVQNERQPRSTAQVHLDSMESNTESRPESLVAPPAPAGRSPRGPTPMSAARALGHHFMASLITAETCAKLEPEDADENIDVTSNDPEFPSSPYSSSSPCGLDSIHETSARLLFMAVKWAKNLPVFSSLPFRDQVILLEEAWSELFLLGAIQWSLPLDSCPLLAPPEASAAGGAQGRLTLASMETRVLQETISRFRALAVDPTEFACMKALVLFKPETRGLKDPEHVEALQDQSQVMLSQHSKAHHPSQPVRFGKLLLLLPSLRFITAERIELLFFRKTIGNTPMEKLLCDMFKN
Test [7] has as its target Serine/threonine-protein kinase pim-1 (Homo sapiens, UniProt P11309). The class given is functional.
Test [8] addresses Cell division cycle 7-related protein kinase (Homo sapiens, UniProt O00311). It is filed as functional.
The target in test [9] is Homeodomain-interacting protein kinase 2 (Homo sapiens, UniProt Q9H2X6). The class given is functional.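 Further: measured within a kinome-wide kinase profiling panel, HIPK2 being one panel member.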
Test [10] deals with Interleukin-1 receptor-associated kinase 4 (Homo sapiens, UniProt Q9NWZ3). It is filed as functional.
Chain of Interleukin-1 receptor-associated kinase 4 (Q9NWZ3 whole entry): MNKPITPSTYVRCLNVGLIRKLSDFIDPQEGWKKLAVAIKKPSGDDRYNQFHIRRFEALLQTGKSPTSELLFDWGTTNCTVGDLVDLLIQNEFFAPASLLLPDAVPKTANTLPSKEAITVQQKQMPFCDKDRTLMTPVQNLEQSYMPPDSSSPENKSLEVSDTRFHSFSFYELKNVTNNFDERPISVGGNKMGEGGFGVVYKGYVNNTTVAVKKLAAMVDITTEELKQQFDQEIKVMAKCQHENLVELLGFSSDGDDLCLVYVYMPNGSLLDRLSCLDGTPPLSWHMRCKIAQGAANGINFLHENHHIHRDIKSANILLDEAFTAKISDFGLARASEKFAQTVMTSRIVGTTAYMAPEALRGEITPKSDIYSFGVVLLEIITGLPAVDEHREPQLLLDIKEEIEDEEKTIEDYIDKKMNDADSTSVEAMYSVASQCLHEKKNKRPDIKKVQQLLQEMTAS
For test [11], the target named is Glycogen synthase kinase-3 beta (Homo sapiens, UniProt P49841). The class given is functional.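 Further: value comes from a broad kinome profiling panel, with GSK3B as the panel member.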
Chain of Glycogen synthase kinase-3 beta (P49841 whole entry): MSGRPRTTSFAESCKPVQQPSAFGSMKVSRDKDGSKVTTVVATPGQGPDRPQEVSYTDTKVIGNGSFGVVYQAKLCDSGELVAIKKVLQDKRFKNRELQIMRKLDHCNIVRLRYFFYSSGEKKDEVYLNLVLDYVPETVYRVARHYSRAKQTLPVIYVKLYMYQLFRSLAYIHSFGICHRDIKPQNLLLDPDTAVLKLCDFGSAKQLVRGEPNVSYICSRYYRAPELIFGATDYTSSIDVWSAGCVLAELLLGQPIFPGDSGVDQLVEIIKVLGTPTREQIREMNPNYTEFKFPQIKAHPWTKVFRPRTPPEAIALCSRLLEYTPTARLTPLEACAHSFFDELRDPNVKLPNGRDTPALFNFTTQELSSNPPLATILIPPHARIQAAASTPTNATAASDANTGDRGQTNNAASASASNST
For test [12], the target named is cAMP-dependent protein kinase catalytic subunit alpha (Homo sapiens, UniProt P17612). The class given is functional.
Test [13] deals with Dual specificity protein kinase CLK4 (Homo sapiens, UniProt Q9HAZ1). It is filed as functional.
Chain of Dual specificity protein kinase CLK4 (Q9HAZ1 whole entry): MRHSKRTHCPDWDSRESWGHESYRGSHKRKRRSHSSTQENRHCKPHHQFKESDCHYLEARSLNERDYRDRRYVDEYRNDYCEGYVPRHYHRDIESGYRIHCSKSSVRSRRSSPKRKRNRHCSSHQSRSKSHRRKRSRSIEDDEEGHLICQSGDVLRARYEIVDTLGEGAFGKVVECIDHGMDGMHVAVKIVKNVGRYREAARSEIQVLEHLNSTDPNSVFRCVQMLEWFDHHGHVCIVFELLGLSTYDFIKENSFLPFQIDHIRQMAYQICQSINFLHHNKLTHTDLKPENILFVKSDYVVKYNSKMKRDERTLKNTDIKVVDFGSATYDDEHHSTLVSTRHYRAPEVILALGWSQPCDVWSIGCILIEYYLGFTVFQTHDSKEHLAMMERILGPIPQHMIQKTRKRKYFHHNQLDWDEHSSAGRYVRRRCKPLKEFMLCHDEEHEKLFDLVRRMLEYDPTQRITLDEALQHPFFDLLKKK
For test [14], the target named is Mitogen-activated protein kinase kinase kinase kinase 4 (Homo sapiens, UniProt O95819). The class given is functional.
Chain of Mitogen-activated protein kinase kinase kinase kinase 4 (O95819 whole entry): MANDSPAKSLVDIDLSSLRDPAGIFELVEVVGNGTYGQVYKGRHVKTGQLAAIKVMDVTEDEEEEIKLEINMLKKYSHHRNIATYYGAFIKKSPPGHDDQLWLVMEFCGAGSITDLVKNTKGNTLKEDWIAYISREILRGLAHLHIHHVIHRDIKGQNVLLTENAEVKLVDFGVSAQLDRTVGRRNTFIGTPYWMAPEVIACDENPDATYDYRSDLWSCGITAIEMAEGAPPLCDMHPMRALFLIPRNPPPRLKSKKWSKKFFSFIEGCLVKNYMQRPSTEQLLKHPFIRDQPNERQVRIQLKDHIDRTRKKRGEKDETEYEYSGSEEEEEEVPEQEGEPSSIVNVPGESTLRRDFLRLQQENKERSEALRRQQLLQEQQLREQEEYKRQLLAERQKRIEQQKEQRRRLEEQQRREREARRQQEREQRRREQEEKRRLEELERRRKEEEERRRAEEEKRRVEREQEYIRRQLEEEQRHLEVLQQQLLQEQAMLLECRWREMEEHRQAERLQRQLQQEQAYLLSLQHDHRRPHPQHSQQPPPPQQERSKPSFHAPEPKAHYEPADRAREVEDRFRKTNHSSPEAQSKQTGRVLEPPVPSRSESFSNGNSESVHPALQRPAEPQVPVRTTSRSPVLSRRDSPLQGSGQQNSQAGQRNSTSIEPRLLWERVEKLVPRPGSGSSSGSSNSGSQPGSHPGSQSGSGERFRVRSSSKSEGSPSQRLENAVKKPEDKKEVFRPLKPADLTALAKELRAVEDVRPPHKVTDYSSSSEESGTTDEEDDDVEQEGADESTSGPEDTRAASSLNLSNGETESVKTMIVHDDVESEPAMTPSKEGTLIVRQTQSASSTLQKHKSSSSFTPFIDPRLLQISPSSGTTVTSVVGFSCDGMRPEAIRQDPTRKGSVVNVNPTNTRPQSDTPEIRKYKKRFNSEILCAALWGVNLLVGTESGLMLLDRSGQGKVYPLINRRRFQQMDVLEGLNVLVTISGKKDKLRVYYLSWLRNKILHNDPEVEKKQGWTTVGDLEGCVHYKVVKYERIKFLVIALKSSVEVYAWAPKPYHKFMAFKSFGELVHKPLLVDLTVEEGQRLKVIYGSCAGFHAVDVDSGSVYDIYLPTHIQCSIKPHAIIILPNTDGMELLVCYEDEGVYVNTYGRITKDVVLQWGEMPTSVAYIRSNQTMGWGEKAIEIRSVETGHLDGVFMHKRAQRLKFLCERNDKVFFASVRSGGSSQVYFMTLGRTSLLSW
Test [15] concerns the target Melanocortin receptor 4 (Homo sapiens, UniProt P32245). The class given is functional, cell-based.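 Further: Cell-based assay with luminescence read-out, confirmatory dose-response testing for agonist activity of biased ligands at MC4R; human U2OS cells with tagged receptor and beta-arrestin; potency of agonists that increase receptor coupling to beta-arrestin.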
For test [16], the target named is 26S proteasome non-ATPase regulatory subunit 14 (Homo sapiens, UniProt O00487). Briefly: inhibition of proteasome subunit RPN11 – biochemical, fluorescence polarization, uHTS hits, confirmation (AID 602368). The class given is functional.
Test [17] concerns the target 72 kDa type IV collagenase (Homo sapiens, UniProt P08253). Briefly: Dose Response validation of uHTS RPN11 inhibitor hits using a MMP-2 Fluorescence assay. It is filed as functional.
The target in test [18] is Prothrombin (Bos taurus, UniProt P00735). Briefly: thrombin protease inhibitors – biochemical, fluorescence polarization, uHTS hits, dose response (AID 602369). It is filed as functional.
Test [19] is described as follows: NIH-3T3 fibroblast cytotoxicity, dose response, cytotoxicity control, cell-based, fluorescence, Alamar Blue, secondary assay (AID 2327).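 Further: NIH-3T3 mouse fibroblasts cultured with fluconazole at 8 µg/mL.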 It is filed as functional.
A short description of test [20]: fluconazole-exposed Candida albicans growth modulators – fluorescence, retest, confirmation (AID 2467). It is filed as functional, cell-based.
Test [21] is described as follows: Trypanosoma cruzi growth suppression in host cells – NIH3T3 host cells, beta-gal luminescence, confirmation (AID 2044).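 Further: intracellular parasites grown in NIH/3T3 mouse fibroblasts as host cells; luminescent beta-galactosidase reporter signal from transgenic T. cruzi replicating inside host cells; inhibitors lower the luminescence signal.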 The class given is functional, cell-based.
The target of test [22] is T1, Serine/threonine-protein phosphatase (Candida dubliniensis (strain CD36 / CBS 7987 / NCPF 3949 / NRRLY-17841) (Yeast), UniProt B9W6M3).
T1 sequence (B9W6M3 whole entry): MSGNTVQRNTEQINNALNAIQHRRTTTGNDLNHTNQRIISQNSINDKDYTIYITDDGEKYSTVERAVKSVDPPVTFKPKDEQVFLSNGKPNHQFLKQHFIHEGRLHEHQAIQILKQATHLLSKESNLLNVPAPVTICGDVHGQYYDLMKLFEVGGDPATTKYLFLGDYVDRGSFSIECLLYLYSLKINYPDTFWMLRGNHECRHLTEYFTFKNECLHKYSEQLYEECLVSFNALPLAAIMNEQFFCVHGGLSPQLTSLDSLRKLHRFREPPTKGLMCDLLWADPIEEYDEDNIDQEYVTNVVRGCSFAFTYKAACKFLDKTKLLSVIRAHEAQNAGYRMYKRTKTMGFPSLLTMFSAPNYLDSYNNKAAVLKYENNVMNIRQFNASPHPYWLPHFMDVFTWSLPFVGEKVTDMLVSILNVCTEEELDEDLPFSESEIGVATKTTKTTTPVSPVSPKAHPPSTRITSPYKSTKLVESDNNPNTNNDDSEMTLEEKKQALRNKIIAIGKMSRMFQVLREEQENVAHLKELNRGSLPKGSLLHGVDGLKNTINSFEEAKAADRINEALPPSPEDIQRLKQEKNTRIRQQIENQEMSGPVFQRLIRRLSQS
Briefly: blockers of CaCl2-induced CDRE-lacZ signaling – S. cerevisiae, luminescence, secondary, dose response (AID 2388).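 Further: yeast reporter cells carrying a calcineurin-responsive lacZ construct stimulated with calcium chloride; luminescent beta-galactosidase reporter signal in whole cells rather than isolated phosphatase activity; potency for inhibition where a drop in reporter signal means calcineurin blockade.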 It is filed as functional, cell-based.

The nature of test [23]: NIH3T3 cell viability loss – ATP luminescence, mouse fibroblasts, counter-screen, dose response (AID 2010).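 Further: cells exposed to compound for about 90 hours before reading.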 The class given is functional, cell-based.
Test [24] has as its target Beta-galactosidase (Escherichia coli, UniProt Q8VNN2). The test is described as follows: detection-enzyme interference by beta-gal modulators – biochemical, E. coli enzyme, set 3, artefact control for CCR6 antagonist project, dose response (AID 504712). The class given is functional.
The target of test [25] is Heat shock protein HSP 90-alpha (Homo sapiens, UniProt P07900). The class given is functional, organism-based.
In test [26] the target is ATP-dependent molecular chaperone HSP82 (Candida albicans (strain WO-1) (Yeast), UniProt C4YTQ8). The test is described as follows: steroid-induced GRE reporter decrease in yeast – S. cerevisiae, luminescence, Hsp90 inhibitor project, dose response (AID 2400).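 Further: beta-galactosidase luminescence from glucocorticoid response element reporter as proxy for Hsp90 function; inhibitor potency where signal loss means Hsp90 inhibition.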 It is filed as functional, cell-based.
Test [27] can be described thus: mammalian cell viability loss – Alamar Blue, dry powder, cytotoxicity control for antifungal single agent project, dose response (AID 602188). The class given is functional, cell-based.
Test [28] addresses T2, Apoptotic protease-activating factor 1 (Homo sapiens, UniProt O14727).
T2 sequence (O14727 whole entry): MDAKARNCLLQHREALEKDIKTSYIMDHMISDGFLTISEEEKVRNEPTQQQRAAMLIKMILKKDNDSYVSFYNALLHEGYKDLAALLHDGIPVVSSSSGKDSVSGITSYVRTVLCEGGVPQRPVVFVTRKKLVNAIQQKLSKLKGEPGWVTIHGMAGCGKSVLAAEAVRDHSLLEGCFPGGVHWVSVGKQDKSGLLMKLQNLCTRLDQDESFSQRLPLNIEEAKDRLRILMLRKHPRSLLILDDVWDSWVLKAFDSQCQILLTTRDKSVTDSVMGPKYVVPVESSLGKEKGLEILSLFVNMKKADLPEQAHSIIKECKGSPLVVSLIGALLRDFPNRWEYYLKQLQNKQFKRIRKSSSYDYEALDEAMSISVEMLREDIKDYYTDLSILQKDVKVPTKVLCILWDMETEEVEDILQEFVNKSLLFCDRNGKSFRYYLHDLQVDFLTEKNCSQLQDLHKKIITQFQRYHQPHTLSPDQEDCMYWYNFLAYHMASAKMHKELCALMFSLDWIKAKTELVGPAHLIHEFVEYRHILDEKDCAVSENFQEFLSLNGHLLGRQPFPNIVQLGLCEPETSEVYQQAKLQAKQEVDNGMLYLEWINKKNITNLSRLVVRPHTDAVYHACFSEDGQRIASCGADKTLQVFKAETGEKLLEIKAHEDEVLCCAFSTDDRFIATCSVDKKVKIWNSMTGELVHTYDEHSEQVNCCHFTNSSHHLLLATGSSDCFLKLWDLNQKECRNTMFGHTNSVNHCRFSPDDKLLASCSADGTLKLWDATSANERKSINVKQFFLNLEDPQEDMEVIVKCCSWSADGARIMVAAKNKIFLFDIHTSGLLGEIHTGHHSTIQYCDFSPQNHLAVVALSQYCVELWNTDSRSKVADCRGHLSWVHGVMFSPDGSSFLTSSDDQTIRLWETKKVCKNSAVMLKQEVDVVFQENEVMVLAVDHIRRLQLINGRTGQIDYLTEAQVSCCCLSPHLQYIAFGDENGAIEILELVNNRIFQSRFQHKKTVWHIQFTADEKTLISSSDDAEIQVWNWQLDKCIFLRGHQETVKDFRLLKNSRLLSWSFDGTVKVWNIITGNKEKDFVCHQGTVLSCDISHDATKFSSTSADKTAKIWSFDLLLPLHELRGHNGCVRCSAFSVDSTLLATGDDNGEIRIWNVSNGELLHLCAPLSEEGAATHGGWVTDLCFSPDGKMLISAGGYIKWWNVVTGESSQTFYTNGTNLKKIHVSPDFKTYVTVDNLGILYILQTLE
Briefly: SAR analysis of small molecule Activators of Apaf-1 in a Fluorescent assay. The class given is functional. Particulars: read-out: EC50_Mean.

Test [29] concerns the target T3, Aryl hydrocarbon receptor (Homo sapiens, UniProt P35869).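 Further: confirmatory quantitative high-throughput screen measuring activation of the AhR signaling pathway.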
T3 sequence (P35869 whole entry): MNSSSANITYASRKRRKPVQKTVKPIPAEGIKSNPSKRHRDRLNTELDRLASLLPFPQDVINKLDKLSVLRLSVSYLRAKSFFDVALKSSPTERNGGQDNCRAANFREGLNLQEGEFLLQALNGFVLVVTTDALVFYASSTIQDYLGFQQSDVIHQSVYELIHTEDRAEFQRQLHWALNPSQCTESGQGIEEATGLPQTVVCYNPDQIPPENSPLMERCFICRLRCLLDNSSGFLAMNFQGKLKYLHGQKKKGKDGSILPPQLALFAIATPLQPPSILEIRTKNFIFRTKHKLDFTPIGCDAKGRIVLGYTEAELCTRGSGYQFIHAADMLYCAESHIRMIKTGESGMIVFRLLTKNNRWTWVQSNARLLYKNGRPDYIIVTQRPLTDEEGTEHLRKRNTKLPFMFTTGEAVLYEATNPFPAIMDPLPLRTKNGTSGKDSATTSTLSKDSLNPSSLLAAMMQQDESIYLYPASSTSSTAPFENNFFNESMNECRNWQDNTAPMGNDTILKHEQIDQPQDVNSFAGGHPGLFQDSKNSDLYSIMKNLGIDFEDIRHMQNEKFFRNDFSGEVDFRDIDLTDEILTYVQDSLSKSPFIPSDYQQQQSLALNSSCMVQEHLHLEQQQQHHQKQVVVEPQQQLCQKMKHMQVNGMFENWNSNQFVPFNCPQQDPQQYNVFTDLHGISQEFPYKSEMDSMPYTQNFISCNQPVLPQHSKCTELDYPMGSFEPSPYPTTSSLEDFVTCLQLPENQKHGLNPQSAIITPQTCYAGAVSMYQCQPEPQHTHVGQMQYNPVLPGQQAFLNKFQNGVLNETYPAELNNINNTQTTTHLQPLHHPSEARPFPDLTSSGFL
The note with it: Potency.

Active and inactive are the calls of the source.
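Wherever EC50 Mean is given: caspase-3 cleavage of fluorogenic Rh110 DEVD substrate downstream of apoptosome activation.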

Chain of DNA dC->dU-editing enzyme APOBEC-3G (Q9HC16 whole entry): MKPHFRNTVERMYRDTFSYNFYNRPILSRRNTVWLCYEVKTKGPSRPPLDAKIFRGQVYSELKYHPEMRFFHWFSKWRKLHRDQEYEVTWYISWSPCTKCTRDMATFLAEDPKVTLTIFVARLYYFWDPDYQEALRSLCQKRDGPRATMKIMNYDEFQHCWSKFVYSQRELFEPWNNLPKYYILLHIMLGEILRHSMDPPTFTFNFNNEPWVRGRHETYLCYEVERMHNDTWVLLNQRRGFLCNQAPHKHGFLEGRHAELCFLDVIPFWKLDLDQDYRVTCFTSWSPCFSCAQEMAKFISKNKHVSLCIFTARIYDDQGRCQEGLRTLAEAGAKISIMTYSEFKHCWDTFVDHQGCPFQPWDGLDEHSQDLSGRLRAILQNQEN
Chain of Beta-galactosidase (Q8VNN2 whole entry): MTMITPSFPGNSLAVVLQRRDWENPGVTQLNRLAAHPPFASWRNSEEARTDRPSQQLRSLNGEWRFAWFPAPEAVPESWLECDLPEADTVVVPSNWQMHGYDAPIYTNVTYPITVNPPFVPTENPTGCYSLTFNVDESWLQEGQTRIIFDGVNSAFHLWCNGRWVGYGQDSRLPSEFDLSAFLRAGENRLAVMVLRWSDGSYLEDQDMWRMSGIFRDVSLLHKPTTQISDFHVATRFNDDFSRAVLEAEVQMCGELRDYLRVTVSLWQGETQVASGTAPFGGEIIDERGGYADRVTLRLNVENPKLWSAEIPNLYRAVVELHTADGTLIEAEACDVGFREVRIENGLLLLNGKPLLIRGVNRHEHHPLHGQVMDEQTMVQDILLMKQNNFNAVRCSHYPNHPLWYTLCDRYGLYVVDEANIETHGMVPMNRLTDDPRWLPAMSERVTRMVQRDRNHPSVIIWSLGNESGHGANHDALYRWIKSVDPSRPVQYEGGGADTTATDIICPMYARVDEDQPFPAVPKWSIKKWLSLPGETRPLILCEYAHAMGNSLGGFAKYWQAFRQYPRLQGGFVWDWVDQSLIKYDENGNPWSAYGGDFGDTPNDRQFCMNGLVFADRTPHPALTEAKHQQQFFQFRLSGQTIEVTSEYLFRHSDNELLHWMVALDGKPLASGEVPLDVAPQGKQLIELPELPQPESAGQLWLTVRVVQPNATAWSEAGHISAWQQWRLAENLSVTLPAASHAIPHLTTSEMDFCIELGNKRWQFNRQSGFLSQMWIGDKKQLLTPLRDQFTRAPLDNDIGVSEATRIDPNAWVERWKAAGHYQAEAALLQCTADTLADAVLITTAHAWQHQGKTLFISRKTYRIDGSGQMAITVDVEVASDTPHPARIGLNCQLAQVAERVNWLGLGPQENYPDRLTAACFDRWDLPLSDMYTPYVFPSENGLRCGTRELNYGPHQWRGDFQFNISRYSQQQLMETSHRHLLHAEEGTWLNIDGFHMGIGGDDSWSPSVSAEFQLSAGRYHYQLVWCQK
Chain of Melanocortin receptor 4 (P32245 whole entry): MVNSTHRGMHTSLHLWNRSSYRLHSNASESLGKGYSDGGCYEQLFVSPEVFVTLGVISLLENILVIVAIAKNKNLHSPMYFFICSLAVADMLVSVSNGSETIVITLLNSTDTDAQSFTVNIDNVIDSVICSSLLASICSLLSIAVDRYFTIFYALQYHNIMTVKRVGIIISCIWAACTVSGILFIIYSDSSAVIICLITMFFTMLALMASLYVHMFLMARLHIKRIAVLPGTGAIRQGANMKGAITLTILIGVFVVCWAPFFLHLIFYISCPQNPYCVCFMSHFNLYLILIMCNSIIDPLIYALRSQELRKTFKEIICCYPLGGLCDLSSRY

`Cc1nc2sc3c(c2c2nncn12)CCCC3`: the IC50 in [1] and in test [2] was > 99 µM (inactive) in each case.

`COC(=O)Nc1csc2c1NC(=O)CCCC2`: the IC50 in [3] was 5.54 µM (active).

`Cc1ccc(S(=O)(=O)N2[C@@H](c3ccc(Cl)c(Cl)c3)C(C(=O)O)=C[C@H]2CC2CCCC2)cc1`: the CC50 in test [4] is > 40 µM (active). Further, the IC50 in [5] was 43.4 µM (active); in [6], 6.21 µM (active).

Regarding `COCC(C)Nc1cc(-c2c[nH]c3ncccc23)cc(Cl)n1` (centres undefined), the Ki in test [7] was 794 nM (active); in test [8] it was 2 nM (active); in test [9], 63.1 nM (active); in test [10] it was 794 nM (active); in test [11] it was 251 nM (active); in test [12] it was 251 nM (active). For the same compound, the results for the Ki in [13] and in test [14] were 6.31 nM (active) and 10 nM (active), respectively.

For `N#C/C(=C\c1cn(CCOc2ccccc2F)c2ccccc12)C(=O)NCc1cccs1`, the EC50 in [15] is > 89.2 µM (inactive).

Take `COc1ccc(Cc2c(C(C)(C)C)nc3ccc(Cl)cn23)c(C)c1`: the values for the IC50 in [16], in [17] and in test [18] were 22.5 µM (active), > 100 µM (inactive) and 17.7 µM (active), respectively.

On to `O=C(Oc1c(Cl)cc(Cl)c2cccnc12)c1ccco1`, for which the EC50 in [19] was 56.7 µM (inconclusive); in test [20], 98 nM (active); in test [21], 2.12 µM (active); in test [22] it was > 180 µM (inactive); in [23], 10.1 µM (active); in test [26], 15.3 µM (active). Also, in test [24], the IC50 is > 66.6 µM (inactive). The concentration at half-maximal activity (AC50) in [25] is < 195 nM (active); in test [27] it was 2.63 µM (active).

Consider `CC(C)C(=O)Nc1ccc(N)cc1`, for which, in [28], the EC50 is > 100 µM (inactive).

`O=C(Oc1ccccc1)c1cccc(C(=O)Oc2ccccc2)c1`: the AC50 in test [29] was 7.94 µM (inconclusive).
